US8962843B2, “1,3,4-oxadiazole and 1,3,4-thiadiazole beta-lactamase inhibitors” (priority 2012, dated 2015)
Where a name gives a salt, the structure may show the parent alone.

Assays:
[1] = system: bacterial strains that express the class D cephalosporinase OXA-15; assay: Standard BLI potentiation MIC / synergy MIC assays, strains expressing OXA-15; assay type: cell-based, E. coli; details: in combination with a β-lactam; comparator Avibactam (CCC)
Description: (§1) The experimental protocol was performed according to Clinical and Laboratory Standards Institute (CLSI) guidelines with modifications as described below (CLSI guidelines can be derived from the CLSI document M07-A9 published in January 2012: “Methods for Dilution Antimicrobial Susceptibility Tests for Bacteria That Grow Aerobically; Approved Standard-Ninth Edition”).
(§2) To prepare for MIC testing, frozen glycerol stocks of clinical isolates (Klebsiella pneumoniae, Eschericia coli, Enterobacter spp, Citrobacter spp, or Pseudomonas aeruginosa) were used to streak for isolated colonies on rich, non-selective, tryptic soy agar containing 5% sheep's blood (TSAB). Frozen glycerol stocks of laboratory engineered, isogenic E. coli strains, which contain cloned β-lactamase expressing plasmids were used to streak for isolated colonies on rich, selective LB agar supplemented with 25 μg/mL tetracycline to maintain the plasmid. All strains were incubated at 37° C. for 18-24 hrs.
(§3) On the day of testing, primary cultures were started by scraping off 5-10 colonies from the TSAB plates containing clinical strains or the tetracycline supplemented LB plates containing engineered strains. The clinical strain material was suspended in ˜5 mL of cation adjusted Mueller Hinton Broth (CAMHB) in 14 mL culture tubes. The engineered strain material was suspended in CAMHB (supplemented with 25 μg/mL tetracycline) in 14 mL culture tubes. All strains were incubated at 37° C. with aeration (200 rpm) for ˜2 hrs until the optical density at 600 nm (OD600) was >0.1.
(§4) The two compound components of the assay were each diluted in CAMHB and added to the 96-well broth microdilution assay plates. 50 μL of the β-lactam was added to each well of the assay plate in 2-fold dilutions with final concentrations ranging from 128 to 0.13 μg/mL. 25 μL of the BLI compound was added to all wells in the broth microdilution plates at a final concentration of 4 μg/mL. Inoculum cultures were prepared by standardizing the primary cultures to OD600=0.1 and then adding 20 μL of the adjusted primary culture per 1 mL CAMHB for clinical strains or CAMHB (supplemented with tetracycline at 100 μg/mL) for engineered strains, so that the final inoculum density was ˜10^5 colony forming units per milliliter. Diluted inoculum cultures were used to inoculate 25 μl, per well in 96-well broth microdilution assay plates. The final volume of each well was 100 μL and contained a β-lactam at different concentrations, a BLlcompound at 4 μg/mL concentration, the bacterial culture at an OD600 of approximately 0.001 and when necessary tetracycline at 25 μg/mL.
(§5) Plates were incubated for 18-20 hours at 37° C. with aeration (200 rpm). Following incubation, growth was confirmed visually placing plates over a viewing apparatus (stand with a mirror underneath) and then OD600 was measured using a SpectraMax 340PC384 plate reader (Molecular Devices, Sunnyvale, Calif.). Growth was defined as turbidity that could be detected with the naked eye or achieving minimum OD600 of 0.1. MIC values were defined as the lowest concentration producing no visible turbidity.
(§6) The synergy MIC (sMIC) assay determines the concentration of the BLI required to potentiate the activity of a fixed concentration of a β-lactam antibiotic against β-lactamase producing bacterial strains. The experimental protocol was performed according to Clinical and Laboratory Standards Institute (CLSI) guidelines with modifications as described below (CLSI guidelines can be derived from the CLSI document M07-A9 published in January 2012: “Methods for Dilution Antimicrobial Susceptibility Tests for Bacteria That Grow Aerobically; Approved Standard-Ninth Edition”). […]

[2] = system: bacterial strains that express KPC β-lactamases; assay: Standard BLI potentiation MIC / synergy MIC assays, strains expressing KPC β-lactamases; assay type: cell-based; details: in combination with a β-lactam; comparator Avibactam
Description: as §1, §2, §3, §4, §5, §6

Row | SMILES | activity against bacterial strains that express the class D cephalosporinase OXA-15, compared with Avibactam [1] | activity and/or spectrum of activity against bacterial strains that express KPC β-lactamases, compared with Avibactam [2]
1 | NC1(Cc2nnc([C@@H]3CC[C@@H]4CN3C(=O)N4OS(=O)(=O)O)o2)CC1 [Compound 724, (2S,5R)-2-(5-((1-aminocyclopropyl)methyl)-1,3,4-oxadiazol-2-yl)-7-oxo-1,6-diazabicyclo[3.2.1]octan-6-yl hydrogen sulfate] | more active than Avibactam | more active than Avibactam for at least one, bacterial strain that expresses KPC β-lactamase and/or show a better spectrum of activity
2 | N[C@H]1C[C@H](Cc2nnc([C@@H]3CC[C@@H]4CN3C(=O)N4OS(=O)(=O)O)o2)C1 [Compound 751, (2S,5R)-2-(5-(((1r,3S)-3-aminocyclobutyl)methyl)-1,3,4-oxadiazol-2-yl)-7-oxo-1,6-diazabicyclo[3.2.1]octan-6-yl hydrogen sulfate] | more active than Avibactam | more active than Avibactam for at least one, bacterial strain that expresses KPC β-lactamase and/or show a better spectrum of activity
3 | N[C@H]1C[C@H](CCc2nnc([C@@H]3CC[C@@H]4CN3C(=O)N4OS(=O)(=O)O)o2)C1 [Compound 753, (2S,5R)-2-(5-(2-((1r,3R)-3-aminocyclobutyl)ethyl)-1,3,4-oxadiazol-2-yl)-7-oxo-1,6-diazabicyclo[3.2.1]octan-6-yl hydrogen sulfate] | more active than Avibactam | more active than Avibactam for at least one, bacterial strain that expresses KPC β-lactamase and/or show a better spectrum of activity
4 | O=C1N2C[C@@H](CC[C@H]2c2nnc(CCN3CCNCC3)o2)N1OS(=O)(=O)O [Compound 776, (2S,5R)-7-oxo-2-(5-(2-(piperazin-1-ybethyl)-1,3,4-oxadiazol-2-yl)-1,6-diazabicyclo[3.2.1]octan-6-yl hydrogen sulfate] | more active than Avibactam | more active than Avibactam for at least one, bacterial strain that expresses KPC β-lactamase and/or show a better spectrum of activity
5 | N=C(N)NC[C@H](O)c1nnc([C@@H]2CC[C@@H]3CN2C(=O)N3OS(=O)(=O)O)o1 [Compound 732, (2S,5R)-2-(5-((S)-2-guanidino-1-hydroxyethyl)-1,3,4-oxadiazol-2-yl)-7-oxo-1,6-diazabicyclo[3.2.1]octan-6-yl hydrogen sulfate] | more active than Avibactam | more active than Avibactam for at least one, bacterial strain that expresses KPC β-lactamase and/or show a better spectrum of activity
6 | N=C(N)NCC(O)Cc1nnc([C@@H]2CC[C@@H]3CN2C(=O)N3OS(=O)(=O)O)o1 (stereo partly drawn) [Compound 730, (2S,5R)-2-(5-(3-guanidino-2-hydroxypropyl)-1,3,4-oxadiazol-2-yl)-7-oxo-1,6-diazabicyclo[3.2.1]octan-6-yl hydrogen sulfate] | more active than Avibactam | more active than Avibactam for at least one, bacterial strain that expresses KPC β-lactamase and/or show a better spectrum of activity
7 | N=C(N)N1CC(NCc2nnc([C@@H]3CC[C@@H]4CN3C(=O)N4OS(=O)(=O)O)o2)C1 [Compound 746, (2S,5R)-2-(5-(((1-carbamimidoylazetidin-3-yl)amino)methyl)-1,3,4-oxadiazol-2-yl)-7-oxo-1,6-diazabicyclo[3.2.1]octan-6-yl hydrogen sulfate] | more active than Avibactam | more active than Avibactam for at least one, bacterial strain that expresses KPC β-lactamase and/or show a better spectrum of activity
8 | N[C@@H]1CN[C@@H](c2nnc([C@@H]3CC[C@@H]4CN3C(=O)N4OS(=O)(=O)O)o2)C1 [Compound 763, (2S,5R)-2-(5-((2R,4S)-4-aminopyrrolidin-2-yl)-1,3,4-oxadiazol-2-yl)-7-oxo-1,6-diazabicyclo[3.2.1]octan-6-yl hydrogen sulfate] | more active than Avibactam | more active than Avibactam for at least one, bacterial strain that expresses KPC β-lactamase and/or show a better spectrum of activity
9 | N=C(N)NCc1nnc([C@@H]2CC[C@@H]3CN2C(=O)N3OS(=O)(=O)O)s1 [Compound 721, (2S,5R)-2-(5-(guanidinomethyl)-1,3,4-thiadiazol-2-yl)-7-oxo-1,6-diazabicyclo[3.2.1]octan-6-yl hydrogen sulfate] | more active than Avibactam | more active than Avibactam for at least one, bacterial strain that expresses KPC β-lactamase and/or show a better spectrum of activity
10 | CC(C)(N)Cc1nnc([C@@H]2CC[C@@H]3CN2C(=O)N3OS(=O)(=O)O)o1 [Compound 737, (2S,5R)-2-(5-(2-amino-2-methylpropyl)-1,3,4-oxadiazol-2-yl)-7-oxo-1,6-diazabicyclo[3.2.1]octan-6-yl hydrogen sulfate] | more active than Avibactam | more active than Avibactam for at least one, bacterial strain that expresses KPC β-lactamase and/or show a better spectrum of activity
11 | N=C(N)N1CC(Cc2nnc([C@@H]3CC[C@@H]4CN3C(=O)N4OS(=O)(=O)O)o2)C1 [Compound 741, (2S,5R)-2-(5-((1-carbamimidoylazetidin-3-yl)methyl)-1,3,4-oxadiazol-2-yl)-7-oxo-1,6-diazabicyclo[3.2.1]octan-6-yl hydrogen sulfate] | more active than Avibactam | more active than Avibactam for at least one, bacterial strain that expresses KPC β-lactamase and/or show a better spectrum of activity
12 | O=C1N2C[C@@H](CC[C@H]2c2nnc(CCNC3CNC3)o2)N1OS(=O)(=O)O [Compound 745, (2S,5R)-2-(5-(2-(azetidin-3-ylamino)ethyl)-1,3,4-oxadiazol-2-yl)-7-oxo-1,6-diazabicyclo[3.2.1]octan-6-yl hydrogen sulfate] | more active than Avibactam | more active than Avibactam for at least one, bacterial strain that expresses KPC β-lactamase and/or show a better spectrum of activity
13 | N=C(N)NCCc1nnc([C@@H]2CC[C@@H]3CN2C(=O)N3OS(=O)(=O)O)s1 [Compound 794, (2S,5R)-2-(5-(2-guanidinoethyl)-1,3,4-thiadiazol-2-yl)-7-oxo-1,6-diazabicyclo[3.2.1]octan-6-yl hydrogen sulfate] | more active than Avibactam | more active than Avibactam for at least one, bacterial strain that expresses KPC β-lactamase and/or show a better spectrum of activity
